In the NIST ThermoML archive (doi:10.1021/acs.jced.7b00819):
± gives the expanded uncertainty stated by the source.

Experiments:
[1] = Crystal; DTA
[2] = Molar enthalpy of transition or fusion; conditions: Crystal; DSC

SMILES	Normal melting temperature [1]	Molar enthalpy of transition or fusion [2]
CCOC(=O)C1=NN(c2ccc(Cl)cc2Cl)[C@](C)(C(=O)OCC)C1	30.5 ± 0.7 °C	5.88 ± 0.263 kcal/mol
CCOC(=O)C1=NN(c2ccc(Cl)cc2Cl)C(C)(C(=O)OCC)C1 (centres undefined)	49.2 ± 0.7 °C	4.4 ± 0.239 kcal/mol
